Assays:
[1] = Cytotoxicity Determination, trypan blue exclusion method; assay type: cell-based; conditions: human, NCTC 2544 cells, read-out: 50% cell culture inhibitory concentration
Protocol: (§1) Cells of human epithelial cell line NCTC 2544 (EP) were serially passaged from 75 cm^2 tissue culture flasks (Corning) at a spilt ratio of 1/20 every 7 days. The growth medium was Eagles BHK medium supplemented with 10% foetal bovine serum and contained 2.5% of 4.4% sodium bicarbonate solution together with 1% of penicillin (5000 IU ml^-1) and streptomycin (600 μg ml^-1) (Flow).
Cytotoxicity was determined by means of the trypan blue exclusion method. NCTC 2544 cells were prepared in growth medium and aliquots added to […] tissue culture flasks at approximately 1×10^5 cells/ml. At 24 hours the flasks were divided and replenished with growth medium. One half of the flasks received growth medium containing 10 fold dilutions of compound thus exposing the cells to 1, 10, and 100 μM concentrations. At 24, 48, and 72 hours representative flasks were removed from the incubator and the monolayers washed to remove debris. The cells were resuspended in growth medium and aliquots mixed with an equal volume of trypan blue. Stained and unstained cells were counted in a haemocytometer. Cell counts were adjusted to cells/ml. An estimate of the growth and viability of treated and untreated cells was then made.

adenovirus of serotype 8 = test: anti-adenoviral activity, plaque assay in human epithelial cell line NCTC 2544 (EP); assay type: cell-based, adenovirus type 8
Protocol: The anti-adenoviral activity of Compound No. 1 referred to above was tested as follows:
as §1
A stock of adenovirus of type 8 was prepared in 25 cm^2 tissue culture flasks. Flasks were seeded with 2×10^6 EP cells in growth medium and incubated overnight at 37° C. The medium was decanted and 1.0 ml of stock virus suspension was added to the flask. After 1.0 hr adsorption 10 ml of maintenance medium (as above but with 2% serum) was added to the flask.
The flask were incubated at 37° C. After 72 hrs the classical'bunch of grapes' cytopathic effect was visible. The flasks were then frozen and thawed 3 times to liberate the virus and stored at -70° C. Viral titres were usually of the order of 4×10^8 pfu ml^-1.
The plaque assay was performed in 50 mm diameter plastic tissue culture dishes which were initially seeded with 2×10^6 EP cells in growth medium and incubated overnight in 5% CO2 at 37° C. […]

adenovirus serotype 5 = test: anti-adenovirus activity against serotype 5 (statement only); assay type: cell-based

IC50 (adenovirus of serotype 8; unidentified adenovirus, NCTC-2544, adenovirus serotype 8, EP cells, plaque assay): 0.005 µM
SMILES: Cc1cn([C@H]2C[C@H](F)[C@@H](CO)O2)c(=O)[nH]c1=O [Compound No. 1, 2',3'-dideoxy-3'-fluorothymidine]
CC50 at 72 h [1]: 38 µM
anti-adenovirus activity (in words) (adenovirus of serotype 8; serotype 8): particularly high anti-adenovirus activity
anti-adenovirus activity (in words) (adenovirus serotype 5): particularly high anti-adenovirus activity

Source: patent US5070078A, “Antiviral compounds” (Burroughs Wellcome Co., priority 1987, dated 1991)
